Measurements as given in PMC8541353, “A Novel Phenylpyrrolidine Derivative: Synthesis and Effect on Cognitive Functions in Rats with Experimental Ishemic Stroke” (Molecules, 2021).

Assays:
rats with MCAO [1] = assay: Survival within 28 days after MCAO (Kaplan-Meier, log-rank); format: in vivo, Wistar rats; conditions: 28 days after first administration, log-rank test
Experimental: All statistical analyses were performed using the IBM® SPSS® Statistics Version 23.0 and R software Version 3.3.2 (R Foundation for Statistical Computing, Vienna, Austria). For normally distributed quantitative continuous variables, the mean and standard deviation (SD) values were calculated and presented as descriptive statistics. For ordinal variables, median and 25- and 75-percentiles were calculated. For qualitative variables, the absolute count and percentage value for each category were calculated. For quantitative variables, the normality of distribution was verified using frequency histograms and Kolmogorov–Smirnov test. A two-tailed p-value < 0.05 was considered statistically significant. To compare changes in structure displacement, lesion size, and neurological scale, a general linear repeated measures model with a group as a fixed factor was used. One-way multivariate analysis of variance was used in the analysis of behavior. Experimental groups were designed to have an equal sample size (8 vs. 8 rats) based on sample size calculations for the independent sample t-test using Statistica 10 software (type I error 0.05, type II error 0.20). Animal survival was estimated by the Kaplan–Meier method using the log-rank test.

rats with MCAO [2] = assay: Cerebral infarct volume by MRI in transient MCAO model; format: in vivo, Wistar rats; conditions: for Infarct volume at 24 h: 24 h after MCAO, before treatment (group baseline); for Infarct volume by day 28: day 28 after MCAO, compound 1 125 mg kg^−1, piracetam 300 mg kg^−1 daily from 24 h to day 5, p = 0.17
Experimental: A MCAO animal model was used to characterize the effects of compound 1 on the development and resolution of stroke. At the baseline, we performed the MRI and hole-board test before MCAO surgery. Once animals recovered after the surgery, we stratified them based on their background psycho-emotional status and performed a control MRI to access whether the occlusion was sufficient or not. […] From 24 h to day 7, the neurological status was assessed daily according to the neurological scale (mNSS). By the end of day 7, animals underwent MRI. In addition, MRI was performed on days 14 and 28 (Shceme 3)The hole-board test was repeated on days 10 and 24. The degree of motor function impairment, the deficit of exploratory behavior, and the recovery process were assessed in the beam walking test (BWT), which was performed twice on days 12 and 14. An open field test was carried out on days 16 and 26.
Before conducting the experiments, the animals underwent the HBT and were allocated to groups based on their behavior score and weight. Kullback–Leibler divergence method for allocation based on two numerical parameters was used for allocation. We used a sum score for behavior tests and weight. Subsequently, two experimental series were performed. In the first series, rat behavior without stroke modeling after injection of compound 1 (experimental group, n = 10) or saline (control group, n = 10) was evaluated (Scheme 3a). […] Compound 1 was injected at a dose of 125 mg kg^−1 and an injection volume of 0.5 mL. […] For the experiments, the following predetermined exclusion criteria were used: (1) incomplete MCAO indicated by an incomplete lesion on magnetic resonance imaging (MRI) after 24 h [n = 4]and (2) post-operative weight loss of > 20% and severe animal condition within the first post-stroke 48 h [n = 3]. Animals reached humane endpoints based on the absence of nociceptive reflex withdrawal responses, hypothermia, and heart rate reduction to 100–150 beats min^−1. As steroid treatment could have influenced the experiment, rats were humanely euthanized according to the ethical protocol. The experiment design is presented in Scheme 3b.
The rats were anesthetized initially using 3% isoflurane and maintained with a mixture of 2–2.5% isoflurane and 97.5–98% atmospheric air (EZ-7000 Classic System, E-Z Anesthesia® Systems). […]
During the procedure, the rats were maintained under inhalation anesthesia as mentioned above. […] The volume of the hyperintensity ischemic stroke area was calculated by summing the areas of adjacent cross-sections using the following formula: Volume = (S1 + … + Sn) × (h + d), where S1, …, Sn are areas measured in n slices, h is the slice thickness, and d is the interval between slices.

`O=C(CN1CC(c2ccccc2)CC1=O)NCCS(=O)(=O)[O-].[K+]` (stereo not drawn) [Compound 1, potassium 2-[2-(2-oxo-4-phenylpyrrolidin-1-yl)acetamido]ethane-1-sulfonate] was tested, and the “Survival of animals vs other groups” value (rats with MCAO [1]) was “no significant differences”, the “Infarct volume at 24 h” value (rats with MCAO [2]) was 133.6 ± 24.1 mm^3 and the “Infarct volume by day 28” value (rats with MCAO [2]) was 91.2 ± 18.9 mm^3.

`NC(=O)CN1CCCC1=O` [Piracetam, reference compound] was tested, and the “Survival of animals vs other groups” value (rats with MCAO [1]) was “no significant differences”, the “Infarct volume at 24 h” value (rats with MCAO [2]) was 128.5 ± 15.5 mm^3 and the “Infarct volume by day 28” value (rats with MCAO [2]) was 86.0 ± 13.5 mm^3.
